According to patent US20130274127A1, “GENE EXPRESSION MARKERS FOR PREDICTION OF RESPONSE TO PHOSPHOINOSITIDE 3-KINASE INHIBITORS” (GENOMIC HEALTH, INC., priority 2012, published 2013):

Experiments:
Experiment in all cases: NCI-60 in vitro drug sensitivity testing (SRB)
Type in all cases: cell-based
[1] = tested on: 786-0; conditions: Homo sapiens, 786-0, read-out: GDC-0941 GI50
Source text: (§1) Cell lines used in this study were obtained from the National Cancer Institute Developmental Therapeutics program (NCI DTP) and were maintained in RPMI 1640 media (Invitrogen, Grand Island, N.Y.) containing 10% Fetal Bovine Serum (ATCC, Manassas, Va.). Cell lines were used within six months of receipt from the NCI DTP, abrogating the need for reauthentication.
(§2) 14, 2010 and Aug. 9, 2010.

[2] = tested on: A498; conditions: Homo sapiens, A498, read-out: GDC-0941 GI50
Source text: as §1, §2

[3] = tested on: A549/ATCC; conditions: Homo sapiens, read-out: GDC-0941 GI50
Source text: as §1, §2

[4] = tested on: ACHN; conditions: Homo sapiens, read-out: GDC-0941 GI50
Source text: as §1, §2

[5] = tested on: BT-549; conditions: Homo sapiens, BT-549, read-out: GDC-0941 GI50
Source text: as §1, §2

[6] = tested on: CAKI-1; conditions: Homo sapiens, CAKI-1, read-out: GDC-0941 GI50
Source text: as §1, §2

[7] = tested on: CCRF-CEM; conditions: Homo sapiens, read-out: GDC-0941 GI50
Source text: as §1, §2

[8] = tested on: COLO 205; conditions: Homo sapiens, COLO 205, read-out: GDC-0941 GI50
Source text: as §1, §2

[9] = tested on: DU-145; conditions: Homo sapiens, DU-145, read-out: GDC-0941 GI50
Source text: as §1, §2

[10] = tested on: EKVX; conditions: Homo sapiens, read-out: GDC-0941 GI50
Source text: as §1, §2

[11] = tested on: HCC-2998; conditions: Homo sapiens, read-out: GDC-0941 GI50
Source text: as §1, §2

[12] = tested on: HCT-116; conditions: Homo sapiens, HCT-116, read-out: GDC-0941 GI50
Source text: as §1, §2

[13] = tested on: HCT-15; conditions: Homo sapiens, HCT-15, read-out: GDC-0941 GI50
Source text: as §1, §2

[14] = tested on: HL-60(TB); conditions: Homo sapiens, read-out: GDC-0941 GI50
Source text: as §1, §2

[15] = tested on: HOP-62; conditions: Homo sapiens, HOP-62, read-out: GDC-0941 GI50
Source text: as §1, §2

[16] = tested on: HOP-92; conditions: Homo sapiens, HOP-92, read-out: GDC-0941 GI50
Source text: as §1, §2

[17] = tested on: HS 578T; conditions: Homo sapiens, read-out: GDC-0941 GI50
Source text: as §1, §2

[18] = tested on: HT29; conditions: Homo sapiens, HT-29, read-out: GDC-0941 GI50
Source text: as §1, §2

[19] = tested on: IGROV1; conditions: Homo sapiens, IGROV-1, read-out: GDC-0941 GI50
Source text: as §1, §2

[20] = tested on: K-562; conditions: Homo sapiens, K562, read-out: GDC-0941 GI50
Source text: as §1, §2

[21] = tested on: KM12; conditions: Homo sapiens, KM12, read-out: GDC-0941 GI50
Source text: as §1, §2

[22] = tested on: LOX IMVI; conditions: Homo sapiens, read-out: GDC-0941 GI50
Source text: as §1, §2

[23] = tested on: M14; conditions: Homo sapiens, M14, read-out: GDC-0941 GI50
Source text: as §1, §2

[24] = tested on: MALME-3M; conditions: Homo sapiens, read-out: GDC-0941 GI50
Source text: as §1, §2

[25] = tested on: MDA-MB-435; conditions: Homo sapiens, MDA-MB-435, read-out: GDC-0941 GI50
Source text: as §1, §2

[26] = tested on: MDA-MB-468; conditions: Homo sapiens, MDA-MB-468, read-out: GDC-0941 GI50
Source text: as §1, §2

[27] = tested on: MOLT-4; conditions: Homo sapiens, MOLT-4, read-out: GDC-0941 GI50
Source text: as §1, §2

[28] = tested on: NCI-H226; conditions: Homo sapiens, NCI-H226, read-out: GDC-0941 GI50
Source text: as §1, §2

[29] = tested on: NCI-H23; conditions: Homo sapiens, NCI-H23, read-out: GDC-0941 GI50
Source text: as §1, §2

[30] = tested on: NCI-H322M; conditions: Homo sapiens, read-out: GDC-0941 GI50
Source text: as §1, §2

[31] = tested on: NCI-H460; conditions: Homo sapiens, NCI-H460, read-out: GDC-0941 GI50
Source text: as §1, §2

CS(=O)(=O)N1CCN(Cc2cc3nc(-c4cccc5[nH]ncc45)nc(N4CCOCC4)c3s2)CC1 [GDC-0941]
GI50 [1]: 295 nM
GI50 [2]: 123 nM
GI50 [3]: 251 nM
GI50 [4]: 162 nM
GI50 [5]: 32 nM
GI50 [6]: 178 nM
GI50 [7]: 2340 nM
GI50 [8]: 269 nM
GI50 [9]: 355 nM
GI50 [10]: 195 nM
GI50 [11]: 1320 nM
GI50 [12]: 692 nM
GI50 [13]: 209 nM
GI50 [14]: 58 nM
GI50 [15]: 363 nM
GI50 [16]: 83 nM
GI50 [17]: 71 nM
GI50 [18]: 120 nM
GI50 [19]: 26 nM
GI50 [20]: 3470 nM
GI50 [21]: 708 nM
GI50 [22]: 708 nM
GI50 [23]: 871 nM
GI50 [24]: 138 nM
GI50 [25]: 204 nM
GI50 [26]: 110 nM
GI50 [27]: 155 nM
GI50 [28]: 1230 nM
GI50 [29]: 2290 nM
GI50 [30]: 209 nM
GI50 [31]: 204 nM
